Read-outs that look alike come from different tables or passages of the source. Bounds are passed on as bounds.

Broadly, the CC50 is the concentration that lowers cell viability or growth by half. Read a high CC50 as lower toxicity to the cells. Usually EC50 stands for the concentration that produces a half-maximal response. Broadly, the IC50 is the point on the concentration scale where inhibition reaches its midpoint. Usually EC90 stands for the point of the concentration-response curve where the effect stands at 90%.

One series deals with HepG2 AD38 cell line. The series can be described thus: Cytotoxicity (viability, CC50) reported with the anti-HBV test. The format is cell-based. The following applies: for viability, %: concentration not given.
The test system of another series is HBV. The series can be described thus: Anti-HBV activity in the AD-38 cell line using real-time quantitative PCR. The format is cell-based. The conditions noted are these: against HBV; for EC50: AD-38 cells, 4 days, read-out: EC50; for inhibition, %: concentration not given. On the procedure: Anti-HBV activity of prodrugs of general formula 1 determination in the AD-38 cell line using a real-time quanitative PCR. a) Cell cultures. HepG2 AD38 cell line, harboring an integrated over-the-length HBV genomic DNA (Lander S, et. al, Antimicrobal Agents and Chemotherapy, 1997, pg. 1715-1720) were provided by Dr. C. Seeger, Fox Chase Cancer Center, Philadelphia, Pa.). Cells were grown in complete media (DMEM/F12 with 2 mM L-Glutamine (Thermo Scientific, Cat #11320033), 10% Fetal Bovine Serum (ThermoFisher Scientific, Cat#), 1% Antibiotic-antimitotic solution (ThermoFisher Scientific, Cat#15240096), and 0.3 μg/ml tetracyclin (Sigma, Cat # T7660-5G). Cells were plated onto Corning Biocoat 96-well plates (Corning, Cat #356407) in 225 ul of complete media (without teracyclin), 20000 cells/well. The prodrugs of general formula 1 were dissolved first in DMSO (Sigma cat. D2650), then in DMEM/F12 and 9 serial 3× dilutions were prepared and added to cells in 22.5 μl. The final prodrugs concentrations ranged from 10 μM to 1 nM. Cells grown in the presence of tetracyclin were used as a positive control, as HBV replication in this cell line is turned off by thetracyclin. Cell plates were incubated for 4 days at 37 C, 5% CO2. b) HBV DNA isolation. After 4 days, viral DNA was isolated from culture supernatants using PureLink® Pro 96 Genomic DNA Purification Kit (ThermoFisher Scientific, Cat # K183104A), according to manufacturer's recommendations. Eluted DNA samples were stored at −20 C. c) Quantitative real-time PCR (qPCR). PCR was performed on the CFX96™ Real-Time System (Bio-Rad, Hercules, Calif.) using AmpliTaq Gold® DNA Polymerase (Applied Biosystems®).
Ct values (cycle threshold) were obtained for each prodrug sample and normalized to untreated cells, according to formula E=(1/(1+100%))̂(Ct[studied prodrug sample]−Ct[K-]), where E is a normalized expression of studied gene, Ct[K-] and Ct[studied prodrug sample] are Ct values of untreated cells and studied prodrug sample. Inhibition curves were obtained and EC50 values were calculated using the Graph Prizm software (Table 3).

A further series deals with HCV replicon gT1b. The series can be described thus: HCV replicon assay, genotype gT1b. The class given is cell-based. The following applies: Hepatitis C virus. The protocol:
(§1) Anti-HCV activity (EC50) and cytotoxicity (CC50) of prodrugs of general formula 1. The HCV replicon assay was used to determine the antiviral activity of chemotherapeutic agents of general formula 1 (test compounds). Sovaldi (PSI-7977) was used as the reference drug. The test cell line used in the HCV Replicon Assay was the human hepatoma cell line Huh7 incorporating the HCV replicons synthesized by an outside vendor. 96-well plates were seeded with cells at a density of 7.5×10^3 cells per well in 50 μl of assay media. The compound stock solution was made up freshly in an assay medium (DMEM 1×, Cellgro; cat. #10-013-CV) as a 2× stock. A total of 11 serial 3-fold dilutions of test compounds were prepared from the 2× stock in the assay media ranging from 20 nM-0.2 pM final concentrations. At least 4 hours after seeding the cells, compound treatment was initiated by adding 50 μl of compound dilution to the plates. […] The final DMSO concentration was 0.5%. Cells and inhibitors were incubated for 3 days at 37° C./5% CO2. The media was removed from the plates by gentle tapping. The cells were fixed with 100 μl 1:1 acetone:methanol for 1 minute, washed three times with PBS buffer, and then blocked with 150 μl/well 10% Fetal Bovine Serum (FBS) in PBS for 1 hour at room temperature. The cells were then washed three times with PBS buffer and incubated with 100 μl/well anti-hepatitis C core mAb (Affinity BioReagents; cat. # MA1-080, 1 mg/ml stock diluted 1:4,000 in 10% FBS-PBS) for 2 hours at 37° C. Then, the cells were washed three times with PBS and incubated with 100 μl/well HRP-Goat Anti-Mouse antibody (diluted 1:3.500 in 10% FBS-PBS) for 1 hour at 37° C. The cells were then washed three times with PBS and developed with an OPD solution, 100 μl/well (1 OPD tablet+12 ml citrate/phosphate buffer+5 μl 30% H2O2 per plate), for 30 minutes in the dark at room temperature. The reaction was stopped with 2N H2SO4 (100 μl/well), and the absorbance was measured at A490 X on a Victor^3 V 1420 multilabel counter (Perkin Elmer). The EC50 values were calculated for test compounds from the resulting best-fit equations determined by Xlfit software (Table 1).

A further series concerns HCV replicon gT5a. Kind of series: HCV replicon assay, genotype gT5a. The class given is cell-based. The conditions noted are these: Hepatitis C virus, mean. The protocol:
as §1, with “The cells were then washed three times with PBS and developed with an OPD solution, 100 μl/well (1 OPD tablet+12 ml citrate/phosphate buffer+5 μl 30% H2O2 per plate), for 30 minutes in the dark at room temperature.” left out
(In general: In antiviral work, replicon cells carry a viral genome segment that copies itself.)

The test system of the next series is HCV replicon gT2a. Kind of series: HCV replicon assay, genotype gT2a. The class given is cell-based. The following applies: Hepatitis C virus, mean. The protocol:
(§2) Anti-HCV activity (EC50) and cytotoxicity (CC50) of prodrugs of general formula 1. The HCV replicon assay was used to determine the antiviral activity of chemotherapeutic agents of general formula 1 (test compounds). Sovaldi (PSI-7977) was used as the reference drug. The test cell line used in the HCV Replicon Assay was the human hepatoma cell line Huh7 incorporating the HCV replicons synthesized by an outside vendor. 96-well plates were seeded with cells at a density of 7.5×10^3 cells per well in 50 μl of assay media. The compound stock solution was made up freshly in an assay medium (DMEM 1×, Cellgro; cat. #10-013-CV) as a 2× stock. A total of 11 serial 3-fold dilutions of test compounds were prepared from the 2× stock in the assay media ranging from 20 nM-0.2 pM final concentrations. At least 4 hours after seeding the cells, compound treatment was initiated by adding 50 μl of compound dilution to the plates. The final concentrations of compound therefore ranged from 10 nM to 0.1 pM when diluted 1:1 in culture media. The final DMSO concentration was 0.5%. Cells and inhibitors were incubated for 3 days at 37° C./5% CO2. The media was removed from the plates by gentle tapping. The cells were fixed with 100 μl 1:1 acetone:methanol for 1 minute, washed three times with PBS buffer, and then blocked with 150 μl/well 10% Fetal Bovine Serum (FBS) in PBS for 1 hour at room temperature. The cells were then washed three times with PBS buffer and incubated with 100 μl/well anti-hepatitis C core mAb (Affinity BioReagents; cat. # MA1-080, 1 mg/ml stock diluted 1:4,000 in 10% FBS-PBS) for 2 hours at 37° C. Then, the cells were washed three times with PBS and incubated with 100 μl/well HRP-Goat Anti-Mouse antibody (diluted 1:3.500 in 10% FBS-PBS) for 1 hour at 37° C. […] The reaction was stopped with 2N H2SO4 (100 μl/well), and the absorbance was measured at A490 X on a Victor^3 V 1420 multilabel counter (Perkin Elmer). The EC50 values were calculated for test compounds from the resulting best-fit equations determined by Xlfit software (Table 1).

The test system of another series is HCV replicon gT1a. The series can be described thus: HCV replicon assay, genotype gT1a. The format is cell-based. The conditions noted are these: Hepatitis C virus, mean. On the procedure:
as §2, with “The final concentrations of compound therefore ranged from 10 nM to 0.1 pM when diluted 1:1 in culture media.” left out

The test system of a further series is HCV replicon gT4a. Kind of series: HCV replicon assay, genotype gT4a. The format is cell-based. The conditions noted are these: Hepatitis C virus, mean. The protocol:
as §2, with “The final concentrations of compound therefore ranged from 10 nM to 0.1 pM when diluted 1:1 in culture media.” left out

The subject of a further series is HCV replicon gT3a. Kind of series: HCV replicon assay, genotype gT3a. The class given is cell-based. The conditions noted are these: Hepatitis C virus, mean. The protocol: as §2, with “The final concentrations of compound therefore ranged from 10 nM to 0.1 pM when diluted 1:1 in culture media.” left out
The next series deals with HCV replicon. The conditions noted are these: cited from earlier work.

Take `C=C1[C@H](CO[P@@](=O)(N[C@@H](C)C(=O)O[C@@H](C)C(=O)OC(C)C)Oc2ccccc2)[C@@H](O)C[C@@H]1n1cnc2c(=O)[nH]c(N)nc21` [1.2(50), (S)-1-isopropoxycarbonyl-ethyl (S)-2-{(S)-[(1R,3S,5S)-3-(2-amino-6-oxo-1,6-dihydro-purin-9-yl)-5-hydroxy-2-methylene-cyclopentylmethoxy]-phenoxy-phosphorylamino}-propanoate]: in the series with HepG2 AD38 cell line, the CC50 is more than 30000 nM and the “viability, %” value is reported as 95%. Moreover, in the series with HBV, the EC50 was 40 ± 30 nM and the “inhibition, %” value was found to be 100%.

Regarding `C=CCOC(=O)[C@H](C)N[P@](=O)(OC[C@@H]1O[C@H](n2cc(F)c(=O)[nH]c2=O)CS1)Oc1ccccc1` [1.2(97), allyl (S)-2-{(S)-[(2R,5S)-5-(5-fluoro-2,4-dioxo-3,4-dihydro-2H-pyrimidin-1-yl)-[1,3]oxathiolan-2-ylmethoxy]-phenoxy-phosphorylamino}-propanoate], in the series on HepG2 AD38 cell line, the CC50 was more than 30000 nM and the “viability, %” value is 91%. Moreover, in the series on HBV, the EC50 came to 370 ± 50 nM and the “inhibition, %” value came to 99%.

With `CC(C)OC(=O)[C@H](C)OC(=O)[C@H](C)NP(=O)(OC[C@H]1O[C@@H](n2ccc(=O)[nH]c2=O)[C@](C)(F)[C@@H]1O)Oc1ccccc1` (stereo partly drawn) [1.2(2), (S)-1-isopropyloxycarbonyl-ethyl (S)-2-{[(2R,3R,4R,5R)-5-(2,4-dioxo-3,4-dihydro-2H-pyrimidin-1-yl)-4-fluoro-3-hydroxy-4-methyl-tetrahydro-furan-2-ylmethoxy]-phenoxy-phosphorylamino}-propanoate], the IC50 amounted to 18 nM with HCV replicon gT1b (GT1B, read-out: IC50 HCV gT1b 10% FBS (mean)); 34 nM in the series on HCV replicon gT1b (gT1b, 40% NHS, mean, read-out: IC50 HCV gT1b 40% NHS (mean)); 185 nM with HCV replicon gT5a; 24 nM with HCV replicon gT2a; 57 nM in the series on HCV replicon gT1a; 80 nM in the series on HCV replicon gT4a. Moreover, in the series on HCV replicon gT3a, the IC50 came to 69 nM.

Regarding `C=CCOC(=O)[C@H](C)N[P@](=O)(OC[C@@H]1O[C@H](n2ccc(=O)[nH]c2=O)CS1)Oc1ccccc1` [1.2(94), allyl (S)-2-{(S)-[(2R,5S)-5-(2,4-dioxo-3,4-dihydro-2H-pyrimidin-1-yl)-[1,3]oxathiolan-2-ylmethoxy]-phenoxy-phosphorylamino}-propanoate], in the series with HepG2 AD38 cell line, the CC50 is more than 30000 nM and the “viability, %” value is 101%. In the series with HBV, the EC50 turned out to be 300 ± 90 nM and the “inhibition, %” value came out at 99%.

For the compound `CC(C)(CO)C(=O)SCCOP(=O)(COC[C@H]1OC(n2cnc3c(=O)[nH]c(N)nc32)[C@](C)(O)[C@@H]1O)NCc1ccccc1` (stereo partly shown) [IDX-184], in the series on HCV replicon, the EC50 is 400 nM.

Take `CC(C)OC(=O)[C@H](C)OC(=O)[C@H](C)N[P@](=O)(OC[C@@H]1O[C@H](n2cc(F)c(N)nc2=O)CS1)Oc1ccccc1` [1.2(93), (S)-1-isopropoxycarbonyl-ethyl (S)-2-{(S)-[(2R,5S)-5-(4-amino-5-fluoro-2-oxo-2H-pyrimidin-1-yl)-[1,3]oxathiolan-2-ylmethoxy]-phenoxy-phosphorylamino}-propanoate]: in the series with HepG2 AD38 cell line, the CC50 is more than 30000 nM and the “viability, %” value is 94%. In the series on HBV, the EC50 came to 40 ± 10 nM and the “inhibition, %” value came to 93%.

With `COCCOC(=O)[C@H](C)N[P@](=O)(OC[C@@H]1O[C@H](n2ccc(=O)[nH]c2=O)CS1)Oc1ccccc1` [1.2(96), 2-methoxy-ethyl (S)-2-{(S)-[(2R,5S)-5-(2,4-dioxo-3,4-dihydro-2H-pyrimidin-1-yl)-[1,3]oxathiolan-2-ylmethoxy]-phenoxy-phosphorylamino}-propanoate], in the series on HepG2 AD38 cell line, the CC50 is more than 30000 nM and the “viability, %” value is given as 89%. In addition, in the series on HBV, the EC50 came out at 320 ± 80 nM and the “inhibition, %” value came to 96%.

For `COc1nc(N)nc2c1ncn2[C@@H]1O[C@H](COP(=O)(N[C@@H](C)C(=O)OC(C)C)Oc2ccccc2)[C@@H](O)[C@@]1(C)F` (stereo partly shown) [PSI-353661], in the series on HCV replicon (replicon assay), the EC90 is 8 nM. Moreover, the “increase in potency compared to the guanosine analogue” value with HCV replicon (versus β-D-2′-deoxy-2′-R-fluoro-2′-β-C-methylguanosine) is more than 1000 fold.

For the compound `CC(C)OC(=O)[C@H](C)OC(=O)[C@H](C)N[P@](=O)(OC[C@@H]1O[C@H](n2ccc(N)nc2=O)CS1)Oc1ccccc1` [1.2(92), (S)-1-isopropoxycarbonyl-ethyl (S)-2-{(S)-[(2R,5S)-5-(4-amino-2-oxo-2H-pyrimidin-1-yl)-[1,3]oxathiolan-2-ylmethoxy]-phenoxy-phosphorylamino}-propanoate], in the series on HepG2 AD38 cell line, the CC50 was more than 30000 nM and the “viability, %” value was found to be 103%. In the series with HBV, the EC50 was determined as 800 ± 610 nM and the “inhibition, %” value is on record as 86%.
